Test results as given in article PMC8371461 (Frontiers in Pharmacology, 2021).

Experiments:
[1] = tested on: AKT; assay: AKT phosphorylation at the protein level in PSC; assay type: cell-based, mouse; details: 10 µM, 10 min, 1 and 3 h after exposure
[2] = target: T1, CDK9 (Homo sapiens, UniProt P50750); assay: kinome scan; assay type: binding; details: 10 µM
T1 construct: purchased DiscoverX (KINOMEscan)

[3] = target: T2, CHEK1 (Homo sapiens, UniProt O14757); assay: kinome scan; assay type: binding
T2 construct: purchased DiscoverX (KINOMEscan)

[4] = target: T3, CLK2 (Homo sapiens, UniProt P49760); assay: kinome scan; assay type: binding; details: 10 µM
T3 construct: purchased DiscoverX (KINOMEscan)

[5] = target: T4, EPHA2 (Homo sapiens, UniProt P29317); assay: kinome scan; assay type: binding; details: 10 µM
T4 construct: purchased DiscoverX (KINOMEscan)

[6] = target: T5, EPHA5 (Homo sapiens, UniProt P54756); assay: kinome scan; assay type: binding; details: 10 µM
T5 construct: purchased DiscoverX (KINOMEscan)

[7] = target: T6, EPHB4 (Homo sapiens, UniProt P54760); assay: kinome scan; assay type: binding; details: 10 µM
T6 construct: purchased DiscoverX (KINOMEscan)

[8] = target: T7, GSK3B (Homo sapiens, UniProt P49841); assay: kinome scan; assay type: binding; details: 10 µM
T7 construct: purchased DiscoverX (KINOMEscan)

[9] = target: T8, IKK-epsilon (Homo sapiens, UniProt Q14164); assay: kinome scan; assay type: binding; details: 10 µM
T8 construct: purchased DiscoverX (KINOMEscan)

[10] = target: T9, KIT(A829P) (Homo sapiens, UniProt P10721, A829P); assay: kinome scan; assay type: binding; details: 10 µM
T9 construct: purchased DiscoverX (KINOMEscan)

[11] = target: T10, MAP3K3 (Homo sapiens, UniProt Q99759); assay: kinome scan; assay type: binding; details: 10 µM
T10 construct: purchased DiscoverX (KINOMEscan)

[12] = target: T11, MST2 (Homo sapiens, UniProt Q13188); assay: kinome scan; assay type: binding; details: 10 µM
T11 construct: purchased DiscoverX (KINOMEscan)

[13] = target: T12, PIK3CA(I800L) (Homo sapiens, UniProt P42336, I800L); assay: kinome scan; assay type: binding; details: 10 µM
T12 construct: purchased DiscoverX (KINOMEscan)

[14] = target: T13, PIM2 (Homo sapiens, UniProt Q9P1W9); assay: kinome scan; assay type: binding; details: 10 µM
T13 construct: purchased DiscoverX (KINOMEscan)

[15] = target: T14, PIP5K1A (Homo sapiens, UniProt Q99755); assay: kinome scan; assay type: binding; details: 10 µM
T14 construct: purchased DiscoverX (KINOMEscan)

[16] = target: T15, PRKX (Homo sapiens, UniProt P51817); assay: kinome scan; assay type: binding; details: 10 µM
T15 construct: purchased DiscoverX (KINOMEscan)

[17] = target: T16, QSK (Homo sapiens, UniProt Q9Y2K2); assay: kinome scan; assay type: binding; details: 10 µM
T16 construct: purchased DiscoverX (KINOMEscan)

[18] = target: T17, ROCK2 (Homo sapiens, UniProt O75116); assay: kinome scan; assay type: binding; details: 10 µM
T17 construct: purchased DiscoverX (KINOMEscan)

[19] = target: T18, RPS6KA4(Kin.Dom.1-N-terminal) (Homo sapiens, UniProt O75676); assay: kinome scan; assay type: binding; details: 10 µM
T18 construct: RPS6KA4(Kin.Dom.1-N-terminal); purchased DiscoverX (KINOMEscan)

[20] = target: T19, TRKB (Homo sapiens, UniProt Q16620); assay: kinome scan; assay type: binding; details: 10 µM
T19 construct: purchased DiscoverX (KINOMEscan)

[21] = target: T20, TSSK1B (Homo sapiens, UniProt Q9BXA7); assay: kinome scan; assay type: binding; details: 10 µM
T20 construct: purchased DiscoverX (KINOMEscan)

[22] = target: T21, ZAK (Homo sapiens, UniProt Q9NYL2); assay: kinome scan; assay type: binding; details: 10 µM
T21 construct: purchased DiscoverX (KINOMEscan)

[23] = tested on: ERK; assay: ERK phosphorylation by Western blotting; assay type: cell-based, mouse; details: PSC, data not shown
Source text: It is noteworthy that, in parallel, a regulation of the ERK pathway was not confirmed at the protein level, assessed by the study of ERK phosphorylation by Western blotting (data not shown). The effects of the drug on proliferation or differentiation was next investigated in quantitative assays. The rate of cell proliferation of the PSC, assessed during five days by quantification of intracellular ATP, was not affected by the drug (Figure 2A). The CGR8 PSC line was stably transduced with a dual promoter/reporter gene construct containing a ubiquitous promoter (EF1αS) controlling the expression of Renilla Luciferase (RLuc) and also an early neural-specific promoter (Tα1), controlling the expression of Firefly Luciferase (FLuc). Then, neural differentiation was quantified by the normalized ratio between FLuc and RLuc ([Suter et al., 2009]). […] After 72 h, the cells were lysed for RLuc and FLuc luminescence measurement in the presence of their substrates, each signal being normalized with the signal obtained with the vehicle alone (DMSO).

[24] = tested on: CGR8EF1αS,RLuc-Tα1,FLuc cells; assay: cell viability by propidium iodide; assay type: cell-based, mouse; details: up to 10 µM, 72 h
Method: The CGR8 mouse PSC were cultured as described ([Suter et al., 2009]). For neural induction, CGR8 cells were plated in 96-well plates at a density of 10,000 cells/cm^2 on gelatine-coated cell culture plates, in differentiation medium [BHK-21 medium supplemented with 20% foetal calf serum (Thermofisher), L-glutamine 2 mM (Thermofisher), non-essential amino acids (1X, Thermofisher), sodium pyruvate 1 mM (Thermofisher), penicillin/streptomycin 50 U/ml (Thermofisher)]. CGR8EF1αS,RLuc-Tα1,FLuc cells were described in ([Suter et al., 2009]) and were cultured as described above. Luminescence assays were directly performed in 96-well plates with the Dual Luciferase Reporter Assay System (Promega) according to the manufacturer’s instructions. Luminescence was measured with the SpectraMax L Microplate luminometer (Molecular Devices). Cell viability in the wells was measured by the addition of propidium iodide 1 µg/ml in 100 µL of PBS and fluorescence was assessed in each well using a FluoStar Optima reader (Pharmaceutical Technology Group at the University of Geneva).
After two days, cells were lysed for the quantification of intracellular ATP. […] After three days, cells were lysed for the quantification of F-luminescence (FLuc) and R-luminescence (RLuc) in the presence of the respective substrates.

[25] = target: Mitogen-activating protein kinase interacting Ser/Thr kinase (MNK2) (Homo sapiens, UniProt Q9HBH9); assay: Dundee activity test; assay type: biochemical
Source text: (§1) In silico inverse screening is a ligand-driven methodology aiming at identifying a specific target for a given ligand. […] Table 2 contains for each kinase the name and acronym, the PDB identifier of the best-ranked structure, the ranking position in percent, the heavy atom RMSD of the co-crystallized ligand as a control, and the experimental confirmation from the kinome scan by Ambit Biosciences (http://www.ambitbio.com/) performed at the University of Dundee according to a previously described procedure ([Bain et al., 2003]).

[26] = target: Proto-oncogen Ser/Thr kinase PIM1 (PIM1) (Homo sapiens, UniProt P11309); assay: Dundee activity test; assay type: biochemical
Source text: as §1

T2 sequence (O14757 whole entry): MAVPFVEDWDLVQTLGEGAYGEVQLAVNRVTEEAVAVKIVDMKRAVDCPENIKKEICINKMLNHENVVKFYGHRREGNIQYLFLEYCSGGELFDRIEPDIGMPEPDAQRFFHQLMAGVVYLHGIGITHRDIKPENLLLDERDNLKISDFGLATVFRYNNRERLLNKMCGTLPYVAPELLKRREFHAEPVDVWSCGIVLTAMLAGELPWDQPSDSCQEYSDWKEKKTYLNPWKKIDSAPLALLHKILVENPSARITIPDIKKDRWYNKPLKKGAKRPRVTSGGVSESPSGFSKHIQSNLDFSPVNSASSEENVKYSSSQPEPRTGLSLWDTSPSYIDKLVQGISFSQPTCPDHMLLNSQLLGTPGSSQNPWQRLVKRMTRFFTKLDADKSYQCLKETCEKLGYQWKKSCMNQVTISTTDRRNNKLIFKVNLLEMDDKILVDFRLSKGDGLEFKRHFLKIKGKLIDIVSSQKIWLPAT
T21 sequence (Q9NYL2 whole entry): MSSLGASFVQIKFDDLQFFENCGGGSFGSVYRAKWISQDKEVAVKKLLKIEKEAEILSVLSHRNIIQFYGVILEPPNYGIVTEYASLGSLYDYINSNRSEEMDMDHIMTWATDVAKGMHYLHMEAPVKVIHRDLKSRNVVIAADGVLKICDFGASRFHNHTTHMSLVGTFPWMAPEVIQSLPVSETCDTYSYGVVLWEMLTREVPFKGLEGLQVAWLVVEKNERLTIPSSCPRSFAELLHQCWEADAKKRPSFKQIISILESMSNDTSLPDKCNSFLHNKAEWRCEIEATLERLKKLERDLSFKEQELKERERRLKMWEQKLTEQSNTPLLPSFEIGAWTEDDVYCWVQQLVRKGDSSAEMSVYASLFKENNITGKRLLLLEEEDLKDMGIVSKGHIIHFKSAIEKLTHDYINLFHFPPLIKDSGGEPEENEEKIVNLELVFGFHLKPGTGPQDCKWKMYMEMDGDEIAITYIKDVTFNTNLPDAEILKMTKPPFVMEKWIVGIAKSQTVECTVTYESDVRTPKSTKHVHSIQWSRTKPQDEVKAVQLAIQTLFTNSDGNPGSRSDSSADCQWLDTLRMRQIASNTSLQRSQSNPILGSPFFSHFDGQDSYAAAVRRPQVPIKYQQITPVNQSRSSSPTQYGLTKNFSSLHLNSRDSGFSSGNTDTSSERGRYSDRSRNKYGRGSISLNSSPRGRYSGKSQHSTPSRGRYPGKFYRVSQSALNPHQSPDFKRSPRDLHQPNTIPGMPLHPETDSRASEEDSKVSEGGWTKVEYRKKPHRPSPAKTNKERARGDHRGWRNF
T16 sequence (Q9Y2K2 whole entry): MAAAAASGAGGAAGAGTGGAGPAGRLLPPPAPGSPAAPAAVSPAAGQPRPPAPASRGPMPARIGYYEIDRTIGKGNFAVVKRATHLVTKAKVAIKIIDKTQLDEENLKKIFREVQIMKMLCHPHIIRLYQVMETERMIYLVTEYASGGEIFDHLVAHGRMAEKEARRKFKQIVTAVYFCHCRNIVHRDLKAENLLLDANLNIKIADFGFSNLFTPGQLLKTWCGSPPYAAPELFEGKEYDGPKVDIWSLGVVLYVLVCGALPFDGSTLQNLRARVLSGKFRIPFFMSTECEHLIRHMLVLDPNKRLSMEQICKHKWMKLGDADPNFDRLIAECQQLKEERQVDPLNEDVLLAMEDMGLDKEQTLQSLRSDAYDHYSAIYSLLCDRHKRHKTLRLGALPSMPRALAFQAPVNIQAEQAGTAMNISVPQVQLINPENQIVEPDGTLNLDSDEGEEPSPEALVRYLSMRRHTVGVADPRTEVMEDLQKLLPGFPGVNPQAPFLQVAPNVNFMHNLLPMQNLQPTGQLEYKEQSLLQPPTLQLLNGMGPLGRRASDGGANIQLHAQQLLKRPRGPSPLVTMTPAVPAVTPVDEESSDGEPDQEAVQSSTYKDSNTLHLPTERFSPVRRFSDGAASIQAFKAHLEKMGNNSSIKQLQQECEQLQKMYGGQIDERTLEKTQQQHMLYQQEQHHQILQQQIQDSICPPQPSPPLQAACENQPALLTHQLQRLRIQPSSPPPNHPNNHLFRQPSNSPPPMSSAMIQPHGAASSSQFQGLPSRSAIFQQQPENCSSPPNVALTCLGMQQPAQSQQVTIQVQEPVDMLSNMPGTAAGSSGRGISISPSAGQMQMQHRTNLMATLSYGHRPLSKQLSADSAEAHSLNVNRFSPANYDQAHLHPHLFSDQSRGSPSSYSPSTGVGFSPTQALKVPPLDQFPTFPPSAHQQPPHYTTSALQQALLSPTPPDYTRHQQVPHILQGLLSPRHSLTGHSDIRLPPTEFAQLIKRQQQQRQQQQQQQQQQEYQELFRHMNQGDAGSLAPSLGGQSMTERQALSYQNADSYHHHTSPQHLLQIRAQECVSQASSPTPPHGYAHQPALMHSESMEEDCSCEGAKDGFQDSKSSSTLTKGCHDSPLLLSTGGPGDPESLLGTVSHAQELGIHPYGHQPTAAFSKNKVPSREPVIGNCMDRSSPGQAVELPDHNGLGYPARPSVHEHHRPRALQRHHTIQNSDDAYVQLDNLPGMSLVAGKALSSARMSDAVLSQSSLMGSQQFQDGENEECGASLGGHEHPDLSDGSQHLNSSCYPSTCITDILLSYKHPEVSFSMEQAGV
T12 sequence (P42336 whole entry I800L): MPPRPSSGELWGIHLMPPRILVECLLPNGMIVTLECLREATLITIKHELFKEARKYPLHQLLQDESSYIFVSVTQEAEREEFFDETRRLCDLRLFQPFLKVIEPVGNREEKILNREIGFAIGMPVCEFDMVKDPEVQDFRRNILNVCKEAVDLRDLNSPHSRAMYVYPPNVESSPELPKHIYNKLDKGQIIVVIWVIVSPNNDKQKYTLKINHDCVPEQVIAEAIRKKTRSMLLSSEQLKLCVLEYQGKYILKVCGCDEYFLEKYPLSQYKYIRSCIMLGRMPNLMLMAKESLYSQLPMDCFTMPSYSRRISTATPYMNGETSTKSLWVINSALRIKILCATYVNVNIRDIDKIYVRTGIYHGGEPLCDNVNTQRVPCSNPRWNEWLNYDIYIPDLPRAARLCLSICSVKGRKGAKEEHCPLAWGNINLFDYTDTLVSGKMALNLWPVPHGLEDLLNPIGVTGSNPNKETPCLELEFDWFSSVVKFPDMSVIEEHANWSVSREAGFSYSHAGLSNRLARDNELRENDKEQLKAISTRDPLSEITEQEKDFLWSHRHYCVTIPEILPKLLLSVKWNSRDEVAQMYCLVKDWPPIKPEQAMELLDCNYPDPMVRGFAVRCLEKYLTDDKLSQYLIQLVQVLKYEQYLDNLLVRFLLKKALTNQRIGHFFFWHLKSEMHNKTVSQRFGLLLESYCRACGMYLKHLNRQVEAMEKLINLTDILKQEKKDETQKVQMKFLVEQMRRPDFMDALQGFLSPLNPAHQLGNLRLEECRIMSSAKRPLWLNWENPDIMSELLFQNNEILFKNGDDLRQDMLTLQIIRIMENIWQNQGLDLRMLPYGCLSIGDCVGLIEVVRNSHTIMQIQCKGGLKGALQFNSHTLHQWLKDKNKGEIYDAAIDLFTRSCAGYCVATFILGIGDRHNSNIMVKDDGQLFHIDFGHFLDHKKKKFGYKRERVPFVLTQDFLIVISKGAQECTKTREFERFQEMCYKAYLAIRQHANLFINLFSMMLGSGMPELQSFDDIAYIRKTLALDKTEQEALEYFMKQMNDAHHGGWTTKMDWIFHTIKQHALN
T6 sequence (P54760 16-987): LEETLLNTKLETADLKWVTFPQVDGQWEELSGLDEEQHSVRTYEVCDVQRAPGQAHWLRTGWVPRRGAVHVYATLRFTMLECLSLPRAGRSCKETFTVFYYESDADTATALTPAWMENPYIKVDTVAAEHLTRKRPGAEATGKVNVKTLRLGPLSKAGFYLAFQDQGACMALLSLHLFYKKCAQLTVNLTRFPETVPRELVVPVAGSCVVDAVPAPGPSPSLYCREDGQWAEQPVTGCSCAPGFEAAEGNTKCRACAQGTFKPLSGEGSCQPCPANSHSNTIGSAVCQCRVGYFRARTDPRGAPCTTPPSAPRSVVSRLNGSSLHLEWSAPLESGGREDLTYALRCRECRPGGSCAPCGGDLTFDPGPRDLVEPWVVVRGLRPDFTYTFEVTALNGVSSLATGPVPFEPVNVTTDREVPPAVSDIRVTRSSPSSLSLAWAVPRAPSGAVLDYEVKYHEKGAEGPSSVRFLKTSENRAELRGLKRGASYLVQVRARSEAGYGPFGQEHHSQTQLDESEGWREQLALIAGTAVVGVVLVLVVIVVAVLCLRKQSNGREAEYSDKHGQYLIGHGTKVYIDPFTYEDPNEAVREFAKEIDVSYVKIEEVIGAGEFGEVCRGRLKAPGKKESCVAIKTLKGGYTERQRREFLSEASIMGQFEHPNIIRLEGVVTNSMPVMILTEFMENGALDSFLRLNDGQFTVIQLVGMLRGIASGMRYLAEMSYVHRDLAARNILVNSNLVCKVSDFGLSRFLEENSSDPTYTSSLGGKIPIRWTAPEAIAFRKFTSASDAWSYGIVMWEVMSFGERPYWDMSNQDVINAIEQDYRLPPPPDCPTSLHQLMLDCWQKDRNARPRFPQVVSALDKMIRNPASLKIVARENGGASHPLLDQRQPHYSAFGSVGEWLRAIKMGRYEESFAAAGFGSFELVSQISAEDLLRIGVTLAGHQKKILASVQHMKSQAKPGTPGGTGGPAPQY
T1 sequence (P50750 whole entry): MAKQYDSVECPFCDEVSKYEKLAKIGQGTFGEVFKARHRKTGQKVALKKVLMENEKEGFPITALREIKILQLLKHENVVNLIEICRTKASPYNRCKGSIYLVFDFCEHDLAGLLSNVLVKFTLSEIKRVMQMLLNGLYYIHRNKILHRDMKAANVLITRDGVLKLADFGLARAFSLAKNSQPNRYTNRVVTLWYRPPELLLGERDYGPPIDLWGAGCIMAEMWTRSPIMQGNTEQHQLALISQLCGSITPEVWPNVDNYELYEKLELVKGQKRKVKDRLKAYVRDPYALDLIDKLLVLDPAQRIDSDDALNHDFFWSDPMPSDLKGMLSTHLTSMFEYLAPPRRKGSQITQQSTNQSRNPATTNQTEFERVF

Nc1ccc(N=Nc2ccccc2)c(N)n1 [phenazopyridine, 2,6-diamino-3-(phenylazo)pyridine]
phosphorylation of AKT [1]: reduced phosphorylation of AKT | kinase inhibition [2]: 88 | kinase inhibition ([3]; CHEK1, 10 µM): 100 | remaining binding at 10 µM ([3]; CHK1, read-out: Kinome scan (% of control at 10 µM)): 100% | kinase inhibition [4]: 75 | kinase inhibition [5]: 95 | kinase inhibition [6]: 97 | kinase inhibition [7]: 95 | kinase inhibition [8]: 100 | kinase inhibition [9]: 72 | kinase inhibition [10]: 95 | kinase inhibition [11]: 89 | kinase inhibition [12]: 73 | kinase inhibition [13]: 88 | kinase inhibition [14]: 100 | kinase inhibition [15]: 56 | kinase inhibition [16]: 91 | kinase inhibition [17]: 94 | kinase inhibition [18]: 89 | kinase inhibition [19]: 89 | kinase inhibition [20]: 81 | kinase inhibition [21]: 87 | kinase inhibition [22]: 100 | regulation of the ERK pathway (ERK phosphorylation) [23]: not confirmed | toxicity (signal in the presence of propidium iodide) [24]: without any toxicity | remaining activity at 10 µM [25]: 20% | remaining activity at 10 µM [26]: 49%
